Values quoted from earlier work as cited in US20090312311A1, “COMBINATION OF ORGANIC COMPOUNDS” (priority 2006, published 2009).

How the values were obtained:
[1] = system: cardiac hypertrophy; details: transgenic mice that overexpress Hop; Kook et al. 2003
[2] = system: hypertrophy induced by infusion of isoproterenol

## CC(/C=C/C(=O)NO)=C\[C@@H](C)C(=O)c1ccc(N(C)C)cc1 [trichostatin A]
[1]
  effect on cardiac hypertrophy: prevents cardiac hypertrophy
[2]
  effect on hypertrophy: attenuates hypertrophy
